SMILES strings stand for the structures.

The results in this text go back to ChEMBL document CHEMBL1157539, “Thousands of chemical starting points for antimalarial lead identification” (Nature, 2010).

This test has as its system Plasmodium falciparum. Nature of the test: GSK_TCMDC: Inhibition of Plasmodium falciparum 3D7 in whole erythrocytes, using parasite LDH activity as an index of growth. Type of test: functional, organism-based. As to conditions: Plasmodium falciparum, 3D7.
`CCOc1ccc2nc(C)cc(N/N=C/c3ccccc3[N+](=O)[O-])c2c1` showed an XC50 of 29.6 nM.
For `Cc1cccc(C)c1C1CCN(C2CCC(NC(=O)/C=C/c3ccccc3)CC2)CC1` (stereo not drawn) the value was 581 nM.
In turn, `COC(=O)c1ccc(CC(C)NCC(O)c2cccc(Oc3cccc(C(F)(F)F)c3)c2)cc1` (stereo not drawn) came in with an XC50 of 1170 nM.
Next, `Cc1cc(N[C@@H](Cc2ccccc2)C(=O)NCc2cccs2)nc(NCCc2cccnc2)n1`: 1010 nM; `FC(F)(F)c1ccc(Nc2nnnc3ccccc23)cc1`: 692 nM; `CC(NC(=O)NC1CCC(CCN2CCCc3ccccc32)CC1)c1cccc2ccccc12` (stereo not drawn): 1020 nM.
Next, `COc1cc(C=NNc2ccnc3cc(Cl)ccc23)ccc1O`: 134 nM; `Cc1ccccc1C1CCN(c2ccc(NC(=O)c3ccc(Cl)nc3)cc2)CC1`: 1030 nM; `N#Cc1ccc(NC(=O)c2ccc(C(=O)NCCCCN3CCC(c4ccc5c(c4OCCOC4CCCCO4)CCCC5)CC3)cc2)cc1` (stereo not drawn): 580 nM.
Next, `CC(C)(C)C1CCc2nc(N)nc(N)c2C1` (stereo not drawn): 12.6 nM; `O=C(CC1CCCCC1)NCC(NCCCNc1cc(=O)c2ccccc2[nH]1)c1cc(Br)cc(Br)c1` (stereo not drawn): 1050 nM; `Cc1cccc(CN2CCC(Oc3ccc(NC(=O)c4cccs4)cc3Cl)CC2)n1`: 844 nM.
Molecule `CN1C(=O)OC[C@@H]1Cc1ccc2[nH]cc(C3=CCN(Cc4ccccc4)CC3)c2c1` gave an XC50 of 417 nM.
For `Cc1cc2nc(-c3ccc(C(=O)NCCCc4ccccc4)cc3)[nH]c2cc1C` the value was 1180 nM; for `CN(Cc1cccc(F)c1)C1CCN(c2cc(NC(=O)c3ccc(F)cc3)ccn2)C1` (stereo not drawn), 1230 nM.
As for `Cn1cncc1C(=O)Nc1ccc(-c2ccc(-c3nc4cc(C(F)(F)F)ccc4[nH]3)cc2)cc1`, the XC50 came out at 560 nM.
Next, `COc1cc(C2Nc3ccc4ccccc4c3C3=C2C(=O)CC(C)(C)C3)ccc1Oc1ccc([N+](=O)[O-])cc1C#N` (stereo not drawn): 662 nM; `CCCOc1cc2c(cc1OCCC)C(C=Cc1ccc(Cl)cc1Cl)=NC(C)C2` (stereo not drawn): 370 nM; `O=C(CCc1c[nH]cn1)Nc1ccc(-c2ccc(-c3nc4ccccc4[nH]3)cc2)cc1`: 705 nM.
Next, `CCc1cn2c3c(cc(C(=O)N[C@@H](Cc4ccccc4)[C@H](O)CNCc4cccc(C)c4)cc13)N(C)S(=O)(=O)CC2`: 246 nM; `OC(CNC1CCCCCCC1)c1ccc(Cl)c(Cl)c1` (stereo not drawn): 205 nM.
`O=C(CN1CCN(C(C(=O)Nc2cc(C(F)(F)F)ccc2Cl)c2ccccc2)CC1)NC1CC1` (stereo not drawn): the XC50 was 443 nM.
`COc1ccc(CN(C)Cc2cc(C(C)C)c(C)cc2O)cc1F`: the XC50 was determined as 654 nM.
For `COc1cccc2c(O)c(CNC3CCCCC3)ccc12` the value was 630 nM.
In turn, `N#Cc1ccc(-c2ccc(C(=O)NCCCCN3CCC(c4ccc5c(c4OCC(N)=O)CCCC5)CC3)cc2)cc1` displayed an XC50 of 984 nM.
The molecule `CCOc1ccc(-c2nonc2NC(=O)c2ccccc2)cc1OCC` yielded an XC50 of 257 nM.
Next, `CCN(CC)CCCC(C)Nc1c2ccc(Cl)cc2nc2ccc(OC)cc12` (stereo not drawn): 44.1 nM.
Next, `CCN1CCC(NCc2ccc(-c3ccc(Cl)s3)cc2)CC1`: 939 nM.
Next, `Cc1n[nH]c2ccc(-c3cc(OC[C@@H](N)Cc4ccccc4)cnc3-c3ccccc3OCc3cccc(F)c3)cc12`: 1220 nM; `c1ccc(Oc2ccc(Nc3ccnc(Nc4ccc(OCCN5CCCCC5)cc4)n3)cc2)cc1`: 604 nM.
Molecule `O=C(Nc1cc(C(F)(F)F)ccc1N1CCOCC1)C(Cl)(Cl)Cl` registered an XC50 of 373 nM.
Next, `O=C(Cc1c[nH]cn1)Nc1cccc(-c2ccc(-c3nc4cc(C(F)(F)F)ccc4[nH]3)cc2)c1`: 700 nM; `Cc1ccc(-c2cc(C(=O)Nc3ccc(S(=O)(=O)N4CCCCC4C)cc3)n[nH]2)c(O)c1` (stereo not drawn): 1080 nM.
For `CN1CCN(Cc2cccc(-c3ccc4c(Nc5ccc(Oc6ccccc6)cc5)ccnc4c3)c2)CC1` the value was 226 nM.
Next, `CCOc1cc(C)ccc1C1CCN(CCCCNC(=O)c2cnc(-c3ccc(C(F)(F)F)cc3)[nH]2)CC1`: 771 nM.
Consider `O=C(/C=C/c1ccc(Cl)cc1)NCCCCCN1CCCN(C(=O)Nc2ccc(Cl)c(C(F)(F)F)c2)CC1`, for which the XC50 worked out at 910 nM.
In turn, `C=CCOC(=O)N1CCC(CNCc2ccc(-c3ccc(-c4nc5ccccc5[nH]4)s3)cc2)C1` (stereo not drawn) registered an XC50 of 229 nM.
Regarding `CCOC(=O)CCCc1cc(NC2CCN(C)CC2)nc(Nc2ccc(OC)cc2)n1`, the XC50 was determined as 704 nM.
Next, `CC(C)c1ccc(CN2CCCCC(NC(=O)c3cc(-c4ccccc4F)cs3)C2)cc1` (stereo not drawn): 672 nM; `COc1cccc(CCc2cccc(CNC(C)=O)c2)c1`: 1040 nM.
Next, `N#Cc1ccc(N/C(=N\c2ccc(-c3ccccc3)cc2)NC2CCCc3ccccc32)c(O)c1` (stereo not drawn): 776 nM; `Cc1cc(=NN=Cc2cccc(Cl)c2)c2cc(F)ccc2[nH]1`: 759 nM.
Regarding `COc1ccc(C(=O)C2CC2CN(C)CCC(O)c2ccc(Cl)c(Cl)c2)cc1` (stereo not drawn), the XC50 turned out to be 873 nM.
Next, `Cc1cc(N[C@@H](Cc2ccccc2)C(=O)NCc2cccc(F)c2)nc(NCCCOC(C)C)n1`: 920 nM; `N#Cc1ccc2c(c1)CN(CCCCNC(=O)c1ccc(-c3ccccc3)cc1)CC2`: 894 nM; `C=C(C)Cn1cc(C2CCN(CCCCNC(=O)c3sc(-c4ccc(Cl)cc4Cl)nc3CO)CC2)c2ccccc21`: 1150 nM.
For `CC(C)C(=O)NC(c1ccc(Cl)cc1)c1ccc2cccnc2c1O` (stereo not drawn) the value was 873 nM.
On to `CCOc1ccc2[nH]c(C)cc(=NN=Cc3ccccc3)c2c1`, for which the XC50 was determined as 785 nM.
For `O=C(/C=C/c1ccc(Cl)c(Cl)c1)NCCCCCN1CCCC(CNS(=O)(=O)c2cccc(C(F)(F)F)c2)C1` (stereo not drawn) the value was 950 nM.
For `CC(=O)N(Cc1cccc(-c2ccc(CNCCc3ccccc3)cc2)c1)C1CCN(Cc2ccccc2)CC1` the value was 691 nM; for `COc1ccc(-c2nc(NC(=O)CS(=O)(=O)c3ccc(OC)cc3)sc2C)cc1`, 302 nM.
As for `CCOc1cc2ncnc(Nc3ccc(OCc4ccccc4Br)c(OC)c3)c2cc1OCC`, the XC50 is 467 nM.
For `CNCc1ccc2nc(-c3coc(Cc4cc(Cl)ccc4OCC(C)C)n3)[nH]c2c1` the value was 838 nM; for `Nc1c2c(nc3ccc(NC(=O)CCCc4ccccc4)cc13)CCCC2`, 429 nM.
Next, `COc1ccc(C(=O)N2CCC(CN3CCOC(c4ccccc4)(c4ccccc4)C3)CC2)cc1`: 171 nM.
The molecule `CC(C)C[C@@H](/C=N/N1CCNC1=O)NC(=O)[C@H](CC(C)C)NC(=O)c1ccc(OCCN2CCOCC2)cc1` displayed an XC50 of 190 nM.
The molecule `Cc1cc(NCCC(=O)Nc2ccccc2)nc(NCCc2ccc(F)cc2)n1` returned an XC50 of 1130 nM.
For the molecule `N#Cc1c(-c2ccccc2)cn2c1[nH]c(=O)c1ccccc12`, the XC50 amounted to 109 nM.
Next, `O=[N+]([O-])c1cccc(NC(=S)N2CCCN(Cc3ccc(Cl)cc3Cl)CC2)c1`: 925 nM; `CC[C@H](C)CNC(=O)c1cccc(-c2cccc(CNCC3CNCCCO3)c2)n1` (stereo partly drawn): 1080 nM.
Next, `O=[N+]([O-])c1cccc(-n2nc(NCc3ccc(Cl)cc3)nc2-c2ccc(F)c(C(F)(F)F)c2)c1`: 243 nM; `Cc1nc(-c2nc(NCCc3cnccn3)ncc2-c2ccsc2)sc1C`: 881 nM; `N#CC(c1ccc(Cl)cc1)c1ccc2c(C(F)(F)F)cc(C(F)(F)F)nc2n1` (stereo not drawn): 1010 nM.
